Like-named read-outs stand apart in the source and are kept apart here.
Legend:
tumor = conditions: animal models; cited from earlier work
[1] = test system: 60 cancer cell lines (NCI 60 cancer cell line series); conditions: cited from earlier work
[2] = test system: 60 cancer cell lines (NCI 60 cancer cell line series); assay: NCI-DTP in vitro cancer screen, sulforhodamine B (SRB) growth inhibition, 48 hour exposure; format: cell-based, human
Summary of the method: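 Potency is given as mean −log{GI50} from dose–response curves, manually binned into Low, Medium or High sensitivity. Sixty NCI-DTP tumour lines were treated 48 h with a duplicate, five-dose, ten-fold dilution series, and growth read by SRB staining of cell mass.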

CC(=O)O[C@@]12CO[C@@H]1C[C@H](O)[C@@]1(C)C(=O)[C@H](O)C3=C(C)[C@@H](OC(=O)[C@H](O)[C@@H](NC(=O)OC(C)(C)C)c4ccccc4)C[C@@](O)([C@@H](OC(=O)c4ccccc4)[C@H]21)C3(C)C [Taxotere, docetaxel]
anti-tumor activity (tumor): good anti-tumor activity

Bleomycin
−Log (GI50) ([1]; CNS SF-539 CL12016): 7.7 | −Log (GI50) ([1]; Melanoma LOX IMVI CL10001): 6.8 | −Log (GI50) ([1]; Ovarian OVCAR-3 CL6001): 5.3 | classification of cell line as Low(1), Medium(2), High(3) sensitivity to compound ([2]; Breast MCF7(I) CL5001): 2 | classification of cell line as Low(1), Medium(2), High(3) sensitivity to compound ([2]; Breast MCF7/ADRr CL5002): 2 | classification of cell line as Low(1), Medium(2), High(3) sensitivity to compound ([2]; Breast MDA-MB-231 CL5005): 1 | classification of cell line as Low(1), Medium(2), High(3) sensitivity to compound ([2]; Breast MDA-MB-435 CL5011): 1 | classification of cell line as Low(1), Medium(2), High(3) sensitivity to compound ([2]; Breast MDA-N CL5012): 1 | classification of cell line as Low(1), Medium(2), High(3) sensitivity to compound ([2]; Breast T-47D CL5014): 2 | classification of cell line as Low(1), Medium(2), High(3) sensitivity to compound ([2]; CNS SF-268 CL12014): 2 | classification of cell line as Low(1), Medium(2), High(3) sensitivity to compound ([2]; CNS SF-295 CL12015): 3 | classification of cell line as Low(1), Medium(2), High(3) sensitivity to compound ([2]; CNS SF-539 CL12016): 3 | classification of cell line as Low(1), Medium(2), High(3) sensitivity to compound ([2]; CNS SNB-19 CL12002): 2 | classification of cell line as Low(1), Medium(2), High(3) sensitivity to compound ([2]; CNS SNB-75(I) CL12005): 2 | classification of cell line as Low(1), Medium(2), High(3) sensitivity to compound ([2]; CNS U251(I) CL12009): 2 | classification of cell line as Low(1), Medium(2), High(3) sensitivity to compound ([2]; Colon COLO-250 CL4010): 2 | classification of cell line as Low(1), Medium(2), High(3) sensitivity to compound ([2]; Colon HCT-15 CL4015): 2 | classification of cell line as Low(1), Medium(2), High(3) sensitivity to compound ([2]; Colon HCT-116 CL4003): 2 | classification of cell line as Low(1), Medium(2), High(3) sensitivity to compound ([2]; Colon HT29(I) CL4001): 1 | classification of cell line as Low(1), Medium(2), High(3) sensitivity to compound ([2]; Colon KM12 CL4017): 1 | classification of cell line as Low(1), Medium(2), High(3) sensitivity to compound ([2]; Colon SW-620 CL4009): 2 | classification of cell line as Low(1), Medium(2), High(3) sensitivity to compound ([2]; Leukemia CCRF-CEM(I) CL7003): 2 | classification of cell line as Low(1), Medium(2), High(3) sensitivity to compound ([2]; Leukemia HL-60(I) CL7008): 2 | classification of cell line as Low(1), Medium(2), High(3) sensitivity to compound ([2]; Leukemia K562(I) CL7005): 2 | classification of cell line as Low(1), Medium(2), High(3) sensitivity to compound ([2]; Leukemia MOLT-4 CL7006): 2 | classification of cell line as Low(1), Medium(2), High(3) sensitivity to compound ([2]; Leukemia SR CL7019): 3 | classification of cell line as Low(1), Medium(2), High(3) sensitivity to compound ([2]; Melanoma LOX IMVI CL10001): 3 | classification of cell line as Low(1), Medium(2), High(3) sensitivity to compound ([2]; Melanoma M14 CL10014): 2 | classification of cell line as Low(1), Medium(2), High(3) sensitivity to compound ([2]; Melanoma MALME-3M CL10002): 2 | classification of cell line as Low(1), Medium(2), High(3) sensitivity to compound ([2]; Melanoma SK-MEL-2 CL10005): 1 | classification of cell line as Low(1), Medium(2), High(3) sensitivity to compound ([2]; Melanoma SK-MEL-28 CL10008): 1 | sensitivity classification Low(1)/Medium(2)/High(3) ([2]; NSCLC NCI-H23(I) CL1001): 2 | sensitivity classification Low(1)/Medium(2)/High(3) ([2]; NSCLC NCI-H332M CL1017): 1 | sensitivity classification Low(1)/Medium(2)/High(3) ([2]; NSCLC NCI-H522 CL1003): 2 | sensitivity classification Low(1)/Medium(2)/High(3) ([2]; Ovarian IGROV1 CL6010): 2 | sensitivity classification Low(1)/Medium(2)/High(3) ([2]; Ovarian OVCAR-3 CL6001): 2 | sensitivity classification Low(1)/Medium(2)/High(3) ([2]; Ovarian OVCAR-4 CL6002): 2 | sensitivity classification Low(1)/Medium(2)/High(3) ([2]; Ovarian OVCAR-5 CL6003): 2 | sensitivity classification Low(1)/Medium(2)/High(3) ([2]; Ovarian OVCAR-8 CL6005): 2 | sensitivity classification Low(1)/Medium(2)/High(3) ([2]; Ovarian SK-OV-3 CL6011): 2 | sensitivity classification Low(1)/Medium(2)/High(3) ([2]; Prostate DU-145 CL11003): 2 | sensitivity classification Low(1)/Medium(2)/High(3) ([2]; Prostate PC-3(I) CL11001): 2 | sensitivity classification Low(1)/Medium(2)/High(3) ([2]; Renal 786-0 CL9018): 2 | sensitivity classification Low(1)/Medium(2)/High(3) ([2]; Renal A498 CL9013): 2 | sensitivity classification Low(1)/Medium(2)/High(3) ([2]; Renal ACHN CL9023): 3 | sensitivity classification Low(1)/Medium(2)/High(3) ([2]; Renal SN12C CL9008): 2 | sensitivity classification Low(1)/Medium(2)/High(3) ([2]; Renal TK10 CL9024): 1

— US20030129629A1, “Methods and compositions for the identification, assessment, prevention, and therapy of human cancers” (Millennium Pharmaceuticals, Inc., priority 2000, published 2003)
